# What was measured:
# C. neoformans H99 [1] = assay: Checkerboard titration assay; type: cell-based, Cryptococcus neoformans; settings: 30° C., 48 hours
# Experimental: (§1) Amphotericin B plus 5-flucytosine or fluconazole are combinations often used to treat cryptococcal meningitis. To investigate the synergy between eltrombopag and existing antifungal drugs or other drugs, a checkerboard titration assay was performed on Cryptococcus. Briefly, C. neoformans […] and C. deuterogattii […] cells were cultured overnight at 30° C. and then washed twice with double-distilled water. The cells were diluted to 10^3 cfu/mL with RPMI 1640 medium, and 100 μL of the cell suspension was added to each well of a 96-well polystyrene plate. […] After incubation at 30° C. for 48 hours, the growth of cells under different treatments was assessed by measuring the light absorbance at 600 nm (OD600). This assay allows the determination of fractional inhibitory concentration index (FICI): (MICcombined of drug A/MICalone of drug A)+(MICcombined of drug B/MICalone of drug B). After the checkerboard titration assay, the cells (3 μL) in the 96-well plate were transferred to drug-free YPD agar plates. After incubation at 30° C. for 48 hours, the agar plates were photographed and assessed for cell viability.
# C. deuterogattii R265 = assay: Checkerboard titration assay; type: cell-based, Cryptococcus deuterogattii; settings: 30° C., 48 hours
# Experimental: as §1
# C. neoformans H99 [2] = assay: XTT-reduction assay of biofilm metabolic activity; type: cell-based, Cryptococcus neoformans; settings: at respective MICs (1 mg/L amphotericin B, 4 mg/L fluconazole), 24 hours
# Experimental: Cryptococcus biofilms, which are composed of Cryptococcus cells and extracellular matrix, enhance the tolerance of Cryptococcus to antifungal agents (such as amphotericin B) and host defense mechanisms. To assess whether eltrombopag impacts biofilm formation in Cryptococcus, an XTT-reduction assay was used to measure the metabolic activity of C. neoformans cells treated with eltrombopag at 37° C. Briefly, C. neoformans […] cells were cultured in YPD medium at 30° C. overnight. The cells were washed twice with phosphate buffered saline (PBS) and resuspended in RPMI 1640 medium with or without eltrombopag at the indicated concentrations. The cell suspension (0.0005 OD600/mL) was added to a 96-well polystyrene plate and incubated at 37° C. for 24 or 48 hours. […] After incubation, the cells were washed three times with PBS and subjected to XTT reduction assay to quantify formazan formation by measuring the light absorbance at 492 nm. The experiments were performed in triplicate, and the results were presented as mean±standard deviation. Statistical significance for the data sets was determined using a two-tailed t test.
SMILES,MICalone (C. neoformans H99 [1]) [mg/L],MICcombined of FLC (C. neoformans H99 [1]; FLC in combination with ETP) [mg/L],MICalone (C. deuterogattii R265) [mg/L],MICcombined of FLC (C. deuterogattii R265; FLC in combination with ETP) [mg/L],"reducing the metabolic activity of C. neoformans biofilms, compared with eltrombopag (C. neoformans H99 [2])",MICcombined of AMB (C. neoformans H99 [1]; AMB in combination with ETP) [mg/L],MICcombined of AMB (C. deuterogattii R265; AMB in combination with ETP) [mg/L],MICcombined of FK506 (C. neoformans H99 [1]; FK506 in combination with ETP) [mg/L],MICcombined of FK506 (C. deuterogattii R265; FK506 in combination with ETP) [mg/L]
"OC(Cn1cncn1)(Cn1cncn1)c1ccc(F)cc1F [FLC, fluconazole]",4,8,16,16,less effective than eltrombopag,–,–,–,–
"C[C@@H]1[C@H](O)[C@@H](C)/C=C/C=C/C=C/C=C/C=C/C=C/C=C/[C@H](O[C@@H]2O[C@H](C)[C@@H](O)[C@H](N)[C@@H]2O)C[C@@H]2O[C@](O)(C[C@@H](O)C[C@@H](O)[C@H](O)CC[C@@H](O)C[C@@H](O)CC(=O)O[C@H]1C)C[C@H](O)[C@H]2C(=O)O [AMB, amphotericin B]",1,–,1,–,less effective than eltrombopag,0.5,1,–,–
"C=CC[C@@H]1/C=C(\C)C[C@H](C)C[C@H](OC)[C@H]2O[C@@](O)(C(=O)C(=O)N3CCCC[C@H]3C(=O)O[C@H](/C(C)=C/[C@@H]3CC[C@@H](O)[C@H](OC)C3)[C@H](C)[C@@H](O)CC1=O)[C@H](C)C[C@@H]2OC [FK506, tacrolimus]",>16,–,>16,–,–,–,–,0.25,0.25

# Source: patent US11160790B2, “Method of inhibiting Cryptococcus growth using eltrombopag” (priority 2019, dated 2021)
